# Values joined by “and” are separate entries in the source; they are usually repeats but may differ in a detail not shown here. Identical values can stand only once. Like-named read-outs stand apart in the source and are kept apart here.
# Experiments:
# Human PiT2 = biological target: T1, Human PiT2 (Homo sapiens, UniProt Q08357); experiment: 33P-phosphate uptake in CHO cells over-expressing human PiT2; type: cell-based
# T1 construct: Full Length cDNA Cloning and Generation of Cell Lines Over-Expressing Human NPT2a, NPT2c, Pit1, and Pit2; host or cells: CHO-K1, pcDNA3.1(+), constitutive
# T1 sequence (Q08357 1-652): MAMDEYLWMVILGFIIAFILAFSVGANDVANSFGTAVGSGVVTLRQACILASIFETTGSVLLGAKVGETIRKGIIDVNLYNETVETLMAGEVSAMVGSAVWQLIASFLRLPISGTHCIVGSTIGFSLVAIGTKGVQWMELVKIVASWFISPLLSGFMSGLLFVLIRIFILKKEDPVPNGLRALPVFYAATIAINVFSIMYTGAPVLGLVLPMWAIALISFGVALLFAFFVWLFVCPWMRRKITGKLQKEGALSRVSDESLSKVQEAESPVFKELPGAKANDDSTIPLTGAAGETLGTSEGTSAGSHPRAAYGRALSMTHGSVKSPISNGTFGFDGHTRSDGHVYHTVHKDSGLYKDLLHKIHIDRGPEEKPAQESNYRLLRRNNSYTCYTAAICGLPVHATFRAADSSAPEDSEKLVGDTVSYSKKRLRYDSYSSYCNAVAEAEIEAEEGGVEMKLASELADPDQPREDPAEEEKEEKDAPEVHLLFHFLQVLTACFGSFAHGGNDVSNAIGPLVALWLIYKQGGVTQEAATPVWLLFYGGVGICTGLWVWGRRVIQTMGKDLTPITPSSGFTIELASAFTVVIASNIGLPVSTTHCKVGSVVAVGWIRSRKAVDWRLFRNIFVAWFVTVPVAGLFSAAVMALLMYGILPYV
# Experimental: T‐Rex™ Chinese Hamster Ovary cells (CHO; Thermo Fisher Scientific) stably expressing human, mouse, or rat NPT2b under a tetracycline‐inducible promoter were generated using standard cDNA transfection and clone selection procedures (see Supporting Information). Cells were plated in 96‐well CytoStar‐T® scintillating microplates and were incubated overnight in growth media plus 100 ng/ml of tetracycline to induce expression of NPT2b. The next day, cells were washed 3 times with 200 µl assay buffer (137 mM NaCl, 5.4 mM KCl, 2.8 mM CaCl2, 1.2 mM MgSO4, and 14 mM Tris‐HCl buffer, pH 7.5). LY3358966 serially diluted 1‐to‐3 in DMSO was added to cells with assay buffer. An equal volume of H3 ^33PO4 (PerkinElmer) in assay buffer supplemented with 5 µM potassium phosphate was then added to initiate radiolabeled phosphate (^33P‐phosphate) uptake. […] The plate was immediately read on a Wallac MicroBeta Trilux liquid scintillation counter. Percent inhibition at all concentrations tested was calculated, and IC50 values were then determined using a 4‐parameter logistic curve fitting equation.
# Similar methods were used to measure the effects of LY3358966 on other transporters of interest, except that constitutive promoters were used to generate CHO cells over‐expressing human PiT1 and PiT2. The ^33P‐phosphate uptake was measured after 45 min at 20°C for the NPT2a, NPT2c, PiT1, and PiT2 assays. […]
# [1] = Pharmacokinetic study in mice; type: in vivo, mouse; conditions: for bioavailability: po
# Experimental: (§1) Male CD‐1 male mice were orally dosed with 1, 3, or 10 mg/kg API of LY3358966 SDD dissolved in water or were IV dosed with 1 mg/kg LY3358966 formulated in 25% dimethylacetamide, 15% ethanol, 10% propylene glycol, 25% 2‐pyrrolidone, and 25% water. Each dose group contained six animals. Three animals were bled at 0.25, 0.5, 1, 2, 4, 8, 12, and 24 h, with each animal being bled at alternate time points. Plasma drug levels were determined by HPLC/MS. The unbound fraction of LY3358966 in plasma was determined with equilibrium dialysis and LC‐MS/MS.
# [2] = Unbound fraction in plasma by equilibrium dialysis; type: in vitro ADME; conditions: mouse plasma
# Experimental: as §1
# [3] = tested on: intestinal phosphate absorption; experiment: Recovery of radiolabeled phosphate in feces of mice; type: in vivo, mouse
# Experimental: Male C57BL/6 male mice, 9 weeks old (23–28 g, n = 10/group), were dosed with either placebo or LY3358966 SDD (9 mg/kg API) dissolved in water at t = −4.25, −0.25, and 3.75 h. The animals were fasted from t = −4 to t = 0 h. At t = 0, the animals were dosed with radiolabeled phosphate as described above and were given free access to food. Feces were collected at 6, 24, and 48 h, digested overnight at 37°C in 1 N NaOH, and the recovered radioactivity was determined. Most of the radiolabeled phosphate was recovered in the first 24 h. […] In all cases, the investigators collecting feces were blinded to the treatment.
# [4] = across all dose groups, from unbound fraction 0.005
# [5] = male, CD-1, mouse, plasma, IV 1 mg/kg
# [6] = male, CD-1, mouse, plasma, PO 1 mg/kg
# [7] = male, CD-1, mouse, plasma, PO 3 mg/kg
# [8] = male, CD-1, mouse, plasma, PO 10 mg/kg
# [9] = 9 mg/kg API x 3 doses at 4-h intervals
smiles,measurement,setting,value
"CC1(C)CN(C(=O)NCCCCO)CCN1Cc1cccc(C(=O)Nc2sc3c(c2C(=O)Nc2cc(F)c(CCc4ccc(C(=O)O)cc4)c(F)c2)CCCC3)c1 [LY3358966, 4‐[2‐[2,6‐difluoro‐4‐[[2‐[[3‐[[4‐(4‐hydroxybutylcarbamoyl)‐2,2‐dimethyl‐piperazin‐1‐yl]methyl]benzoyl]amino]‐4,5,6,7‐tetrahydrobenzothiophene‐3‐carbonyl]amino]phenyl]ethyl]benzoic acid]",IC50,Human PiT2; 45 min at 20°C,> 100 µM
same,Selectivity,Human PiT2; ratio of IC50 of human PiT2 assay to that of human NPT2b assay,>3086
same,C max of unbound LY3358966,[1]; [4],< 1 nM
same,plasma AUC of unbound LY3358966,[1]; [4],< 0.002 µM·h
same,AUC,[1]; [5],0.323 µM·h
same,half-life,[1]; [5],300 min
same,Cmax,[1]; [6],25 nM
same,Tmax,[1]; [6],24 min
same,AUC,"[1]; male, CD-1, mouse, plasma, PO 1 mg/kg, SDD dissolved in water",0.039 µM·h
same,Cmax,[1]; [7],50 nM
same,Tmax,[1]; [7],24 min
same,AUC,"[1]; male, CD-1, mouse, plasma, PO 3 mg/kg, SDD dissolved in water",0.096 µM·h
same,Cmax,[1]; [8],83 nM
same,Tmax,[1]; [8],24 min
same,AUC,"[1]; male, CD-1, mouse, plasma, PO 10 mg/kg, SDD dissolved in water",0.284 µM·h
same,bioavailability,"[1]; male, CD-1, mouse, plasma, 1 mg/kg, PO 1 mg/kg, read-out: F (bioavailability)",12%
same,bioavailability,"[1]; male, CD-1, mouse, plasma, 3 mg/kg, PO 3 mg/kg, read-out: F (bioavailability)",10%
same,bioavailability,"[1]; male, CD-1, mouse, plasma, 10 mg/kg, PO 10 mg/kg, read-out: F (bioavailability)",9%
same,bioavailability,"[1]; male, CD-1, mouse, plasma, 10 mg/kg, PO 1, 3 and 10 mg/kg, read-out: oral bioavailability F",9 to 12%
same,fraction unbound,[2],0.005
same,"33P Recovered in Feces (0-6 hrs), Mean ± SEM",[3]; [9],6.08 ± 1.68%
same,"33P Recovered in Feces (6-24 hrs), Mean ± SEM",[3]; [9],10.77 ± 1.57%
same,"33P Recovered in Feces (24-48 hrs), Mean ± SEM",[3]; [9],1.60 ± 0.08%
same,"33P Recovered in Total Feces (0-48 hrs), Mean ± SEM","[3]; 9 mg/kg API x 3 doses at 4-h intervals, 9 mg/kg",18.44% and 18.44 ± 1.27%
same,increase in radiolabeled phosphate recovered in feces versus vehicle,"[3]; 48 h, 9 mg/kg API x 3, 9 mg/kg",8.6 % of the dose and 8.58 % of the dose
